How the values were obtained:
[1] = biological target: T1, cytochrome P450OX (Sorghum bicolor, UniProt O48958); test: reconstitution of cytochrome P450OX activity in lipid micelles; type: biochemical; set-up: from tissue; host or cells: microsomes of etiolated Sorghum bicolor seedlings; conditions: 10 mM, in place of NADPH
T1 sequence (O48958 2-531): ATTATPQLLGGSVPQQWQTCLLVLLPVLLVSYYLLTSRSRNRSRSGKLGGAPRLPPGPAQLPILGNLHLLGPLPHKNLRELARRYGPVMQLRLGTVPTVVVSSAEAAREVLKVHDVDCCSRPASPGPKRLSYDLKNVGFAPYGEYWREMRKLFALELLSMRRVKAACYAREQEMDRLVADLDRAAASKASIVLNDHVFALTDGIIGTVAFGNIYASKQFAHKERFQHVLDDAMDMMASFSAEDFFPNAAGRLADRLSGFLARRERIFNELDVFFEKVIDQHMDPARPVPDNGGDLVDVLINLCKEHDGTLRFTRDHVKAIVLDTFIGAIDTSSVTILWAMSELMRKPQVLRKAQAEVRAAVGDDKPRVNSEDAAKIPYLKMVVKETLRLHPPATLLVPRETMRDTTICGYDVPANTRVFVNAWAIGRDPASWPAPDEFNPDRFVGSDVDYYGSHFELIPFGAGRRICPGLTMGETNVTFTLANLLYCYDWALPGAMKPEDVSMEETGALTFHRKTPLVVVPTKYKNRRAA
From the text: (§1) Reconstitution of the enzyme activity of a microsomal cytochrome P450 is accomplished by inserting the cytochrome P450 enzyme and the corresponding NADPH cytochrome P450 oxidoreductase into lipid micelles. A mixture of lipids can be used but in the case of cytochrome P450OX, dilauroylphosphatidylcholine (DLPC) provides the best enzymatic activity. The number of correctly formed complexes of cytochrome P450OX and NADPH cytochrome P450 oxidoreductase are a rate limiting factor. Excess amounts of the oxidoreductase and concentrated enzyme solutions are utilized to ensure a sufficient number of active complexes.
(§2) A functionally reconstituted enzyme is obtained using the following components: […]
(§3) The complete reaction mixtures contain: 3 μl of isolated, recombinant P450TYR (6 pmol, heterologously expressed in E. coli and isolated as in Halkier et al, Arch. Biochem. Biophys. 322: 369-377, 1995), 10 μl of isolated and dialyzed P450OX (approximately 0.4 pmol), 5 μl of NADPH-P450 oxidoreductase (0.075 U), 1 μl of partially purified UDPG glucosyl transferase from Sorghum, 5 μl of DLPC (10 mg/ml in 50 mM Kpi (pH7)), 0.25 μl of [U-^14C]-tyrosine ([…], 443 mCi/mmol, Amersham), 3 μl of UDPG (33 mg/ml in 50 mM Kpi (pH7)), and 3 μl of castanospermin (2 mM in 50 mM Kpi (pH7)). […] The first set of reaction mixtures is analyzed using the ethyl acetate/toluene solvent as in example 4.5. […]

[2] = tested on: glucosidase activity present in the UDPG glucosyltransferase extract; test: inhibition of glucosidase activity in the in vitro dhurrin reconstitution; type: biochemical, Sorghum; conditions: 3 μl of 2 mM in 30 μl reaction mixture
Protocol: as §3, with “4.5. The second set of reaction mixtures is analyzed using a solvent system consisting of ethyl acetate/acetone/dichloromethane/methanol/water (20/15/6/5/4, v/v/v/v/v) in order to achieve separation of the hydrophilic product dhurrin from tyrosine and from the hydrophobic intermediates.” for “4.5.”
The combined use of isolated P450TYR and P450OX in reconstitution experiments with radiolabeled tyrosine as substrate results in the production of p-hydroxyphenylacetonitrile and p-hydroxybenzaldehyde. […] Due to the lability of p-hydroxymandelonitrile its conversion to dhurrin is experimentally detected as a disappearance of p-hydroxybenzaldehyde. […]

[3] = biological target: T2, P450OX (Sorghum bicolor, UniProt O48958); test: substrate binding spectra of isolated P450OX; conditions: for substrate binding spectrum: upon substrate addition
T2 construct: from tissue; host or cells: microsomes of etiolated Sorghum bicolor seedlings
T2 sequence (O48958 1-531): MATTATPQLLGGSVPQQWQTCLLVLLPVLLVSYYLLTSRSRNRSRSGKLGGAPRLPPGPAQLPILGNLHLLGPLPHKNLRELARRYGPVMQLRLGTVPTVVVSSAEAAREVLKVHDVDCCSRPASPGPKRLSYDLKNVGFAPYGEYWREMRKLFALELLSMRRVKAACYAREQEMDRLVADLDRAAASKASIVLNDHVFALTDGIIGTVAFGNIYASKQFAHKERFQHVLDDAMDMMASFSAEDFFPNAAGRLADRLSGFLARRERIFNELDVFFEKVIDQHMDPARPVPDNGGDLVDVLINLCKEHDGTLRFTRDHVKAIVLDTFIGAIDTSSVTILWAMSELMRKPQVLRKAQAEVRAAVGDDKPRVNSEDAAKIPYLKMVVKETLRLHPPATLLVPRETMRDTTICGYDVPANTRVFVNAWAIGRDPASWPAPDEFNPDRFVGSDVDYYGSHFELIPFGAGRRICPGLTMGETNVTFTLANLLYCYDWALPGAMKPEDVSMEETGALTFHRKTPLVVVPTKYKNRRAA
Protocol: The identification of P450OX as a multifunctional enzyme converting p-hydroxyphenylacetaldoxime to p-hydroxymandelonitrile with p-hydroxyphenylacetonitrile as an intermediate stimulated us to investigate the substrate binding ability of P450OX. […] The amplitude increased in size upon incubation and reached a stable maximum after approximately 45 min.
The isolated P450OX produces a reverse Type I substrate binding spectrum upon incubation with p-hydroxyphenylacetaldoxime. The extinction coefficient E420-390 corresponding to a complete transition from one spin state to the other is 130 mM^−1 cm^−1. In the substrate binding spectra obtained, the maximal amplitudes are approximately twice as large as theoretically calculated even when assuming a complete shift from a high spin to a low spin state. […] Alternatively, the P420 form of P450OX is able to bind the oxime and thus contributes to the size of the substrate binding spectrum formed. The latter possibility could explain why maximal amplitudes are only obtained after prolonged incubation.

[4] = tested on: microsomal system; conditions: the substance is the substrate, cited from earlier work; for Km: read-out: Km for p-hydroxymandelonitrile production
[5] = biological target: T1, cytochrome P450OX; test: reconstitution of cytochrome P450OX activity in lipid micelles; type: biochemical; set-up: 10 μl of the cytochrome P450OX (approximately 0.4 pmol) solution; from tissue; host or cells: microsomes of etiolated Sorghum bicolor seedlings
From the text: as §1, §2, §3

[6] = biological target: T3, P450TYR (CYP79) (Sorghum bicolor, UniProt Q43135); conditions: upon in vitro reconstitution; cited from earlier work
T3 sequence (Q43135 1-558): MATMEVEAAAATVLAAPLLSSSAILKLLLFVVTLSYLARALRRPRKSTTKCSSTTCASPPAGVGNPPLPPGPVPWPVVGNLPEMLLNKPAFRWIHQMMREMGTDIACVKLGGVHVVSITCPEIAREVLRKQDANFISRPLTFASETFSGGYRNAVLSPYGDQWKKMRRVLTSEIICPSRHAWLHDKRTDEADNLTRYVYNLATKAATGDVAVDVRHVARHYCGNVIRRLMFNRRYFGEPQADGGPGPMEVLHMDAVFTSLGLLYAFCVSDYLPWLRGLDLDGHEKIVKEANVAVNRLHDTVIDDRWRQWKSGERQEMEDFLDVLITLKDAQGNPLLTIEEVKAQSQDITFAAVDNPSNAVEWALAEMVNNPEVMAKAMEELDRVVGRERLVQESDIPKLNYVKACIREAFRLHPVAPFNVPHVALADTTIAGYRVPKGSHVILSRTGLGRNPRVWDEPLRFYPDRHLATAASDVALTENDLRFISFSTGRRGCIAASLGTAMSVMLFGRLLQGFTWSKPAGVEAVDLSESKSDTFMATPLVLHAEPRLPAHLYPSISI

Molecule: O=S([O-])S(=O)[O-].[Na+].[Na+] [Sodium dithionite, reference compound]
- support of metabolism of p-hydroxyphenylacetaldoxime by P450OX [1]: does not support metabolism

Molecule: O[C@H]1[C@H](O)[C@@H](O)CN2CC[C@H](O)[C@H]12 [castanospermine]
- inhibition of glucosidase activity [2]: efficiently inhibited

Molecule: ON=CCc1ccc(O)cc1 [p-hydroxyphenylacetaldoxime]
- incubation time until the amplitude of the binding spectrum reached a stable maximum [3]: approximately 45 min
- substrate binding spectrum [3]: reverse type I spectrum
- Km [4]: 50 µM
- Vmax for p-hydroxymandelonitrile production [4]: 400 nmoles mg protein^−1 h^−1
- metabolism of the oxime as substrate of P450OX [5]: fully metabolized

Molecule: N#CCc1ccc(O)cc1 [p-hydroxyphenylacetonitrile]
- substrate binding spectrum [3]: No substrate binding spectrum was obtained
- Km [4]: 100 µM
- Vmax for p-hydroxymandelonitrile production [4]: 50 nmoles mg protein^−1 h^−1

Molecule: ON=CCc1ccccc1 [phenylacetaldoxime]
- metabolism of the oxime as substrate of P450OX [5]: can metabolize

Molecule: N[C@@H](Cc1ccc(O)cc1)C(=O)O [tyrosine]
- Km [4]: 30 µM
- Vmax for p-hydroxymandelonitrile production [4]: 145 nmoles mg protein^−1 h^−1

B1: P450TYR: cytochrome P450 of Sorghum bicolor that converts tyrosine to p-hydroxyphenylacetaldehyd oxime (protein, UniProt Q43135 2-558, looked up)
Tyrosine N-monooxygenase: ATMEVEAAAATVLAAPLLSSSAILKLLLFVVTLSYLARALRRPRKSTTKCSSTTCASPPAGVGNPPLPPGPVPWPVVGNLPEMLLNKPAFRWIHQMMREMGTDIACVKLGGVHVVSITCPEIAREVLRKQDANFISRPLTFASETFSGGYRNAVLSPYGDQWKKMRRVLTSEIICPSRHAWLHDKRTDEADNLTRYVYNLATKAATGDVAVDVRHVARHYCGNVIRRLMFNRRYFGEPQADGGPGPMEVLHMDAVFTSLGLLYAFCVSDYLPWLRGLDLDGHEKIVKEANVAVNRLHDTVIDDRWRQWKSGERQEMEDFLDVLITLKDAQGNPLLTIEEVKAQSQDITFAAVDNPSNAVEWALAEMVNNPEVMAKAMEELDRVVGRERLVQESDIPKLNYVKACIREAFRLHPVAPFNVPHVALADTTIAGYRVPKGSHVILSRTGLGRNPRVWDEPLRFYPDRHLATAASDVALTENDLRFISFSTGRRGCIAASLGTAMSVMLFGRLLQGFTWSKPAGVEAVDLSESKSDTFMATPLVLHAEPRLPAHLYPSISI
- turn-over number [6]: 230 min⁻¹

Source: patent publication US6649814B2, “Cytochrome P450 monooxygenases” (Syngenta Participations AG, priority 1997, dated 2003)
